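Exposure lasted 48 hours, with cells grown in 96-well plates and compounds tested at five concentrations. Abbreviation: GI50, concentration required for 50% inhibition of growth.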 Calls of active or inactive are those of the source. Rule as the data show it: active = GI50 up to about 1.1 µM and inactive = higher.
Tests used:
Experiment in all cases: NCI tumour cell line growth inhibition, 48 h
MOLT-4 = test system: MOLT-4
SW-620 = test system: SW-620
UO-31 = test system: UO-31
SN12C = test system: SN12C
DU-145 = test system: DU-145
SF-295 = test system: SF-295
NCI-H460 = test system: NCI-H460
SF-268 = test system: SF-268
CCRF-CEM = test system: CCRF-CEM
MDA-MB-231 = test system: MDA-MB-231
MCF7 = test system: MCF7
U-251 = test system: U-251
Malme-3M = test system: Malme-3M
HOP-92 = test system: HOP-92
NCI-H522 = test system: NCI-H522
SF-539 = test system: SF-539
SNB-75 = test system: SNB-75
HL-60 = test system: HL-60
SR = test system: SR

| SMILES | GI50 (MOLT-4) | GI50 (SW-620) | GI50 (UO-31) | GI50 (SN12C) | GI50 (DU-145) | GI50 (SF-295) | GI50 (NCI-H460) | GI50 (SF-268) | GI50 (CCRF-CEM) | GI50 (MDA-MB-231) | GI50 (MCF7) | GI50 (U-251) | GI50 (Malme-3M) | GI50 (HOP-92) | GI50 (NCI-H522) | GI50 (SF-539) | GI50 (SNB-75) | GI50 (HL-60) | GI50 (SR) |
| --- | --- | --- | --- | --- | --- | --- | --- | --- | --- | --- | --- | --- | --- | --- | --- | --- | --- | --- | --- |
| CCc1ccc(CCN2CCCCC2)nc1 | > 100 µM (inactive) | > 100 µM (inactive) | > 100 µM (inactive) | > 100 µM (inactive) | > 100 µM (inactive) | > 100 µM (inactive) | > 100 µM (inactive) | > 100 µM (inactive) | > 100 µM (inactive) | > 100 µM (inactive) | > 100 µM (inactive) | > 100 µM (inactive) | > 100 µM (inactive) | 46.3 µM (inactive) | 52.1 µM (inactive) |  |  |  |  |
| Cc1cnc2c(c1)C(=O)N(c1ccc(Br)cc1)S2(=O)=O | > 100 µM (inactive) | > 100 µM (inactive) | > 100 µM (inactive) | > 100 µM (inactive) | > 100 µM (inactive) | > 100 µM (inactive) | > 100 µM (inactive) | 78.5 µM (inactive) | > 100 µM (inactive) | > 100 µM (inactive) | > 100 µM (inactive) | > 100 µM (inactive) | 35.6 µM (inactive) |  | 19.5 µM (inactive) | > 100 µM (inactive) | 37.3 µM (inactive) | 30.1 µM (inactive) |  |
| COC(C/C(=C/CO[Si](C(C)C)(C(C)C)C(C)C)C(=O)Nc1ccccc1I)OC | 11.8 µM (inactive) | 45.4 µM (inactive) | 36.6 µM (inactive) | 26.9 µM (inactive) | 13 µM (inactive) | 8.63 µM (inactive) | 25.5 µM (inactive) | 46.9 µM (inactive) | 9.68 µM (inactive) | 12.5 µM (inactive) |  | 28 µM (inactive) | 0.0676 µM (active) | 19 µM (inactive) | 1.53 µM (inactive) | 19.8 µM (inactive) | 88.1 µM (inactive) |  | 7.5 µM (inactive) |
| CCOP(=O)(OCC)C(F)(F)c1ccc(CC(NC(=O)OC(C)(C)C)C(=O)O)cc1 (stereo not drawn) | > 10 µM (inactive) | > 10 µM (inactive) | > 10 µM (inactive) | > 10 µM (inactive) | > 10 µM (inactive) | > 10 µM (inactive) | > 10 µM (inactive) | > 10 µM (inactive) | > 10 µM (inactive) | > 10 µM (inactive) | > 10 µM (inactive) | > 10 µM (inactive) | > 10 µM (inactive) | > 10 µM (inactive) |  | > 10 µM (inactive) | > 10 µM (inactive) |  |  |
| CC(C)(C)OC(=O)NCCCCC(N)NC(=O)c1ccccc1 (stereo not drawn) | > 100 µM (inactive) | > 100 µM (inactive) | > 100 µM (inactive) | > 100 µM (inactive) | > 100 µM (inactive) | > 100 µM (inactive) | > 100 µM (inactive) | > 100 µM (inactive) | > 100 µM (inactive) | > 100 µM (inactive) | > 100 µM (inactive) | > 100 µM (inactive) | > 100 µM (inactive) | > 100 µM (inactive) | > 100 µM (inactive) | > 100 µM (inactive) | > 100 µM (inactive) |  |  |
| N#Cc1nc(-c2cccnc2)oc1N | 74 µM (inactive) | > 100 µM (inactive) | 4.83 µM (inactive) | > 100 µM (inactive) | > 100 µM (inactive) |  | > 100 µM (inactive) | > 100 µM (inactive) | > 100 µM (inactive) | > 100 µM (inactive) |  | > 100 µM (inactive) | > 100 µM (inactive) | > 100 µM (inactive) | > 100 µM (inactive) |  |  | > 100 µM (inactive) | > 100 µM (inactive) |
| CCCCCCc1ccc(CCCCCCCC(=O)O)o1 | 16.4 µM (inactive) | > 100 µM (inactive) | > 100 µM (inactive) | > 100 µM (inactive) | > 100 µM (inactive) | 55.5 µM (inactive) | > 100 µM (inactive) |  | 48.5 µM (inactive) |  | 44.8 µM (inactive) |  |  | > 100 µM (inactive) |  | > 100 µM (inactive) | 55.7 µM (inactive) |  | 44 µM (inactive) |
| O=[N+]([O-])c1cccc2nnccc12 | 28.4 µM (inactive) | 42 µM (inactive) | 28.6 µM (inactive) | 26.1 µM (inactive) | 38.7 µM (inactive) | 42.7 µM (inactive) | 19.1 µM (inactive) | 25.2 µM (inactive) |  | > 10 µM (inactive) | 21.1 µM (inactive) | 41.6 µM (inactive) | 11.9 µM (inactive) | 24.2 µM (inactive) | 3.71 µM (inactive) | 48 µM (inactive) | 48.3 µM (inactive) | 2.5 µM (inactive) |  |
| O=C1NC(=O)C(C(c2ccc([N+](=O)[O-])cc2)C2C(=O)NC(=O)NC2=O)C(=O)N1 | > 100 µM (inactive) | > 100 µM (inactive) | > 100 µM (inactive) | > 100 µM (inactive) | > 100 µM (inactive) | > 100 µM (inactive) | > 100 µM (inactive) | 22.5 µM (inactive) | 62.1 µM (inactive) | > 100 µM (inactive) | > 100 µM (inactive) | > 100 µM (inactive) | 55.8 µM (inactive) | > 100 µM (inactive) | > 100 µM (inactive) |  |  | > 100 µM (inactive) |  |
